This is an account of results in patent US20090123536A1, “Oral Pharmaceutical Form of Losartan” (Flamel Technologies, S.A., priority 2005, published 2009).

By solubility is commonly meant the concentration that dissolves in the medium under given conditions. The low end stands for little dissolved substance, the high end for much dissolved substance.

This series in a line: Solubility of losartan as a function of pH. Format: physicochemical. The note with it: water. From the text: It is thus conceived that for losartan, whose solubility depends greatly on the gastric pH (cf. table below), the solubilization, and thus ultimately the plasmatic concentration profile, is subject to great variation from one individual to another and, for the same individual, from one day to another.

Values after ≈ are worked out from the molar mass of the structure shown.

`CCCCc1nc(Cl)c(CO)n1Cc1ccc(-c2ccccc2-c2nn[nH]n2)cc1` [losartan, {2-butyl-4-chloro-1-[4-[2-(1H-tetrazol-5-yl)phenyl]benzyl]-1H-imidazol-5-yl}methanol]: the solubility by setting is: (aqueous buffer, pH 3.0, 37° C.) 100 µg/mL (≈ 0.236 mM); (aqueous buffer, pH 4.5, 37° C.) 120 µg/mL (≈ 0.284 mM); (aqueous buffer, pH 5.0, 37° C.) 300 µg/mL (≈ 0.709 mM); (aqueous buffer, pH 6.0, 37° C.) 1200 µg/mL (≈ 2.84 mM); (aqueous buffer, pH 6.8, 37° C.) 10000 µg/mL (≈ 23.6 mM); (aqueous buffer, pH 8.5, 37° C.) greater than 550000 µg/mL. Besides, the solubility by setting is: (simulated gastric fluid, pH 1.4, 37° C.) 1000 µg/mL (≈ 2.36 mM); (simulated gastric fluid, pH 2.0, 37° C.) 600 µg/mL (≈ 1.42 mM).
